Patent US7857804B2, “Use of Bcl inhibitors for the prevention of fibroproliferative reclosure of dilated blood vessels and other iatrogenic fibroproliferative disorders” (priority 2006, dated 2010)

Assays:
[1] = tested on: cell line R1 (human cell line derived from carotid artery atherosclerotic lesion); test: MTT cell survival after fas ligation (CH11), cell line R1; type: cell-based
Method: (§1) Cells for study were derived from human carotid artery atherosclerotic lesions, by published methods. Additionally, cell lines were subcloned and tested for sensitivity to fas ligation. In the present studies, clonal lines with known resistance to fas ligation were used.
(§2) Induction of apoptosis was achieved by reduction of serum concentration from 10% to 1% FBS for 24 hours prior to adding an activating antibody to fas (CH11, Upstate Biotechnology) at a typical concentration of 50-500 ng/ml. Typically 24-48 hours after fas ligation by CH11, cell survival was determined by measuring metabolic activity by the MTT method.
However, in the presence of fas, the cells pretreated with BCLI underwent a high degree of apoptosis (70% cell death). […] Thus, the drug is neither toxic nor capable of inducing apoptosis alone at this concentration.
Referring to FIG. 1, A human cell line derived from carotid artery atherosclerotic lesion was plated at known density and then subgroups of 3 wells were treated with various drugs prior to exposure to fas ligation by the activating CH11 antibody (+fas). Pretreatment with flavopiridol (Flavo, 50 nM) or BCLI (Bcl-inh, 20 μM or 100 μM) was followed 24 hours later by addition of CH11 activating antibody to fas (50 ng/ml). After fas ligation, cell survival was evaluated 24 hours later by measuring the number of viable cells using the metabolic dye MTT, which is converted to a blue dye that absorbs at 570 nm. Values reflect the mean±s.e.m. (n=3 per group).

[2] = tested on: R1 cells over-expressing Bcl-Xl (R1 bclXL); test: MTT cell survival after fas ligation (CH11), R1 cells over-expressing Bcl-Xl; type: cell-based, human; details: AA 20 μg/ml; BCLI 20 μM; IFN 50 U/ml; SP 20 μM; CH11 50 ng/ml
Method: as §2
In one example, to determine whether the effect of BCLI and AA was via interaction with their intended targets (Bcl-Xl and Bcl-2), the drugs were tested in R1 cells over-expressing Bcl-Xl (R1 bclXL).
(§3) Referring to FIG. 2, human atherosclerosis-derived cells were pretreated with the specified drugs for 24 prior to treatment with the activating fas antibody CH11 (50 ng/ml). […] The drugs used were AA (20 μg/ml), BCLI (20 μM), interferon-gamma (IFN, 50 U/ml), and SP600125 (SP, 20 μM). The upper panel reports the MTT optical density (absorbance at 570 nm) without (control) or with fas ligation (+fas) as the mean, with error bars indicating±standard error of measurement (s.e.m., n=3 per group). The lower panel expresses % survival based on the MTT values above (MTT+fas/MTT Control)×100.

[3] = tested on: R1GFP (human atherosclerosis-derived cell line with known resistance to fas ligation); test: MTT cell survival after fas ligation (CH11), GFP-only expressing cell line; type: cell-based; details: for effect on cell survival in the absence of fas (drug alone): AA3 20 μg/ml, no CH11
Method: as §1, §2
In addition to the BCL-inhibitor, this sensitizing effect was also observed with AA. As above, a human atherosclerosis-derived cell line with known resistance to fas ligation was used for study. In this case, the cell line was stably infected with a retrovirus expressing either an irrelevant marker gene (green fluorescent protein, GFP) or the marker gene and Bcl-Xl. In the GFP-only expressing cell line (R1GFP), fas ligation (50 ng/ml CH11) in low serum (1% FBS) led to only 15% cell death (85% survival) (see FIG. 2).
as §3

Human lesion cells = test: MTT assay for sensitivity to fas-induced apoptosis in human lesion cells; type: cell-based; details: for death with fas ligation (sensitivity to apoptosis): 24 h, 20% death without drug
Method: as §1, §2
FIG. 3 depicts the effect of 2-methoxy-antimycin A3 (AA3) and gossypol on the sensitivity to apoptosis in human lesion cells. Human lesion cells were plated and treated as above for 24 hours with the specified concentrations of drug. Fas ligation was initiated with 50 ng/ml of activating antibody CH11 and 24 hours later the number of cell surviving was measured by their metabolism of MTT. Bars are mean±s.d. (n=4 per group). A reduction in MTT levels indicates cell death.
FIG. 4 depicts the effect of HA14-1 and 2,3-DCPE on sensitivity to fas-induced apoptosis. Human lesion cells were plated and treated as above for 24 hours with the specified concentrations […] of HA14-1 (H) or 2,3-DCPE (D). Fas ligation was initiated with 50 ng/ml of activating antibody CH11 and 24 hours later the number of cell surviving was measured by their metabolism of MTT. Bars are mean±s.d. (n=2 per group). A reduction in MTT levels indicates cell death.

Compound: 2,9-dimethoxy-11,12-dihydrodibenzo[c,g][1,2]-diazocine 5,6-dioxide (A) and 5,5′-Dimethoxy-2,2′-dinitrosobenzyl (B) [BCLI]
- effect upon cell survival in the absence of the activating antibody to fas ([1]; 20 μM, no CH11): little or no effect
- effect on cell survival in the absence of fas ligation ([1]; 100 μM, no CH11): substantial effect on cell survival
- cell death (apoptosis) in the presence of fas ([1]; BCLI pretreatment 20 μM, 24 h, CH11 50 ng/ml, MTT 24 h later): 70%
- effectiveness in Bcl-Xl over-expressing cells compared with GFP control cells [2]: markedly less effective
- effect on cell survival in the absence of fas (drug alone) ([3]; BCLI 20 μM): slightly more apoptosis alone

Compound: CCCC[C@H]1C(=O)O[C@H](C)[C@H](NC(=O)c2cccc(NC=O)c2OC)C(=O)O[C@@H](C)[C@@H]1OC(=O)CC(C)C [AA3, 2-methoxyantimycin A3]
- apoptosis in the presence of fas ([3]; 24 hour pretreatment 20 μg/ml, CH11 50 ng/ml, 1% FBS): 70%
- effect on cell survival in the absence of fas (drug alone) ([3]; BCLI 20 μM): only a small effect on cell survival
- death with fas ligation (sensitivity to apoptosis) (Human lesion cells; 10 μg/ml, CH11 50 ng/ml): 80%
- death with fas ligation (sensitivity to apoptosis) (Human lesion cells; 20 μg/ml, CH11 50 ng/ml): 80%
- death in the absence of fas ligation (Human lesion cells; AA3 at higher concentrations (above 20 μg/ml), no fas ligation): induced death even in the absence of fas ligation

Compound: Cl.OCCNCCCOc1cccc(Cl)c1Cl [DCPE, 2,[[3-(2,3-dichlorophenoxy)propyl]amino]ethanol-HCl]
- fas-dependent sensitization to apoptosis (Human lesion cells; only at the highest tested dose of 100 μM, CH11 50 ng/ml): significant fas-dependent sensitization to apoptosis

Compound: Cc1cc2c(C(C)C)c(O)c(O)c(C=O)c2c(O)c1-c1c(C)cc2c(C(C)C)c(O)c(O)c(C=O)c2c1O [Gossypol, 2,2′-bis(8-Formyl-1,6,7-trihydroxy-5-isopropyl-3-methylnaphthalene)]
- survival in the presence of fas (Human lesion cells; 2.5 μM, CH11 50 ng/ml, 80% survival without drug): 50%

Compound: CCOC(=O)C1=C(N)Oc2ccc(Br)cc2C1C(C#N)C(=O)OCC (centres unmarked) [HA14-1, Ethyl-2-amino-6-bromo-4-(1-cyano-2-ethoxy-2-oxoethyl)-4H-chromene-3-carboxylate]
- fas-independent death-inducing effect (Human lesion cells; 25-100 μM): fas-independent death-inducing effect
- ability to sensitize cells to fas-induced apoptosis (Human lesion cells; HA14-1, all tested concentrations, CH11 50 ng/ml): did not demonstrate any ability to sensitize cell to apoptosis

Compound: Antimycin A [AA]
- effectiveness in Bcl-Xl over-expressing cells compared with GFP control cells [2]: markedly less effective

Compound: interferon-gamma: interferon-gamma, a known sensitizing agent
- effectiveness in Bcl-Xl over-expressing cells compared with GFP control cells [2]: less effective
- sensitizing effect to fas ligation (in words) ([3]; BCLI 20 μM, interferon-gamma 50 U/ml, SP600125 20 μM, CH11 50 ng/ml): comparable effect
